Results: article PMC10726358 (Journal of Medicinal Chemistry, 2023)
In brackets after ≈: the same amount, converted by molar mass. Several values for one entry are separate records, joined by “and”; a condition that tells them apart may be missing. Equal values may be shown once. Where a name gives a salt, the structure may show the parent alone. Read-outs that look alike come from different tables or passages of the source.

What was measured:
BRD4 BD2 = BRD4 BD2 TR-FRET assay; format: binding, human
Experimental: (§1) As a strategic decision, every compound synthesized across all of GSK’s bromodomain research projects was tested in both a BRD4 BD1 and a BRD4 BD2 TR-FRET assay as part of tier 1 data generation. […] LipE is a straightforward, yet powerful metric for medicinal chemistry teams to normalize potency relative to lipophilicity, a critical factor both for parameters of the human dose equation and also for promiscuity.[43],[44] To aid interpretation, diagonal lines representing different LipE values are shown, with the most desirable space found toward the top left-hand area of the plot representing molecules with the comparatively highest potency per unit of lipophilicity.
(§2) All TR-FRET and hWB cytokine assays have been described previously.[54]

[1] = CLND kinetic aqueous solubility; conditions: aqueous (buffer not specified)
BRD4 BD1 = format: binding, human; conditions: TR-FRET
Experimental: as §1, §2

[2] = Chromatographic LogD at pH 7.4; conditions: pH 7.4
MCP-1 = test: LPS-stimulated human whole blood (hWB) MCP-1 release assay; format: cell-based; conditions: for IC50: LPS-stimulated human whole blood
Source text: The utility of a chemical probe in target validation is directly related to its quality, with important publications detailing requirements to aid researchers.[36]−[38] […] It was accepted that selectivity would be judged initially through a mutant BRD4 TR-FRET assay and would likely shift depending on the protein construct and assay format. […] Previous studies have shown that BET BD1 inhibition is sufficient to inhibit in vitro production of MCP-1 in LPS-stimulated hWB and, as such, served as a relevant measure of cellular target engagement and, concomitantly, proof of cellular permeability.[12],[39] Selectivity over other human bromodomains outside of the BET family, known collectively as non-BET bromodomains, was also required,[40] with a ≥ 100-fold selectivity window targeted. To ensure the molecules remained within developable chemical space, a target property forecast index (PFI) as defined by chromLogDpH7.4 + number of aromatic rings ≤6 was set.[41]
(§3) To understand cellular target engagement, 21 was tested in an LPS-stimulated hWB assay measuring inhibition of the inflammatory mediator MCP-1 secretion.
as §2

CAD aqueous solubility = test: CAD aqueous solubility
Experimental: as §3
ChromatographicLogD at pH 7.4, artificial membrane permeability, CLND solubility, and CAD solubility were measured using published protocols.[55]

[3] = read-out: hWB MCP-1 pIC50 (converted)

SMILES	BRD4 BD2 FRET pIC50 (BRD4 BD2)	solubility [1]	BRD4 BD1 FRET pIC50 (BRD4 BD1)	fold selectivity (BRD4 BD1 over BRD4 BD2) (BRD4 BD1)	chromatographic logD [2]	IC50 (MCP-1; [3])	solubility (CAD aqueous solubility)	IC50 (MCP-1; read-out: hWB MCP-1 IC50)	drop of hWB activity compared to BRD4 BD1 potency (MCP-1; hWB MCP-1 vs BRD4 BD1 TR-FRET)
Cc1cc(-c2nc3ccccc3n2C[C@@H]2CCCNC2)cn(C)c1=O [Compound 19, (R)-1,3-Dimethyl-5-(1-(piperidin-3-ylmethyl)-1H-benzo[d]imidazole-2-yl)pyridin-2(1H)-one]	5.0	≥ 152 µg/mL	6.2	16 fold	0.7	–	–	–	–
Cc1cc(-c2nc3ccccc3n2C[C@@H]2CCCN(C(=O)[C@H]3CCNC3)C2)cn(C)c1=O [Compound 24, 1,3-Dimethyl-5-(1-(((S)-1-((S)-pyrrolidine-3-carbonyl)piperidin-3-yl)methyl)-1H-benzo[d]imidazole-2-yl)pyridin-2(1H)-one]	5.3	–	7.6	200 fold	1.3	1000 nM	≥ 208 µg/mL	–	–
Cc1cc(-c2nc3ccccc3n2C[C@@H]2CCCN(C(=O)CCCN)C2)cn(C)c1=O [Compound 21, (S)-5-(1-((1-(4-Aminobutanoyl)piperidin-3-yl)methyl)-1H-benzo[d]imidazole-2-yl)-1,3-dimethylpyridin-2(1H)-one]	5.6	–	7.8	158 fold	1.2	501 nM	113 µg/mL (≈ 268 µM)	500 nM	40 fold
Cc1cc(-c2nc3ccccc3n2C[C@@H]2CCCN(C(=O)c3cnc[nH]3)C2)cn(C)c1=O [Compound 26, (S)-5-(1-((1-(1H-Imidazole-5-carbonyl)piperidin-3-yl)methyl)-1H-benzo[d]imidazole-2-yl)-1,3-dimethylpyridin-2(1H)-one, Formic Acid Salt]	4.9	–	7.0	126 fold	1.9	2510 nM	≥ 160 µg/mL	–	–
Cc1cc(-c2nc3ccccc3n2C[C@@H]2CCCN(C(=O)[C@H]3CC[C@H](N)C3)C2)cn(C)c1=O [Compound 25, 5-(1-(((S)-1-((1S,3S)-3-Aminocyclopentane-1-carbonyl)piperidin-3-yl)methyl)-1H-benzo[d]imidazole-2-yl)-1,3-dimethylpyridin-2(1H)-one]	5.0	–	7.7	500 fold and 501 fold	1.4	1000 nM	≥ 157 µg/mL	–	–
Cc1cc(-c2nc3ccccc3n2C[C@@H]2CCCN(C(=O)C3CCC(N)CC3)C2)cn(C)c1=O (stereo in doubt) [Compound 28, 5-(1-(((S)-1-((1r,4R)-4-Aminocyclohexane-1-carbonyl)piperidin-3-yl)methyl)-1H-benzo [d]imidazole-2-yl)-1,3-dimethylpyridin-2(1H)-one]	5.1	–	7.9	631 fold	1.4	316 nM	≥ 155 µg/mL	–	–
Cc1cc(-c2nc3ccccc3n2C[C@@H]2CCCN(C(=O)C3CCCN(C)C3)C2)cn(C)c1=O (stereo partly drawn) [Compound 29, 1,3-Dimethyl-5-(1-(((3S)-1-(1-methylpiperidine-3-carbonyl)piperidin-3-yl)methyl)-1H-benzo[d]imidazole-2-yl)pyridin-2(1H)-one]	5.1	–	6.8	50 fold	1.7	1580 nM	≥ 204 µg/mL	–	–
Cc1cc(-c2nc3ccccc3n2C[C@@H]2CCCN(C(=O)C3CCOCC3)C2)cn(C)c1=O [Compound 32, (S)-1,3-Dimethyl-5-(1-((1-(tetrahydro-2H-pyran-4-carbonyl)piperidin-3-yl)methyl)-1H-benzo[d]imidazole-2-yl)pyridin-2(1H)-one]	4.7	–	6.7	100 fold	2.7	794 nM	≥ 245 µg/mL	–	–
Cc1cc(-c2nc3ccccc3n2C[C@@H]2CCCN(C(=O)C3CCN(CC(F)(F)F)CC3)C2)cn(C)c1=O [Compound 36, (S)-1,3-Dimethyl-5-(1-((1-(1-(2,2,2-trifluoroethyl)piperidine-4-carbonyl)piperidin-3-yl)methyl)-1H-benzo[d]imidazole-2-yl)pyridin-2(1H)-one]	4.7	–	6.3	40 fold	4.2	1260 nM	≥ 201 µg/mL	–	–
Cc1cc(-c2nc3ccccc3n2C[C@@H]2CCCN(C(=O)C3CCN(C)CC3)C2)cn(C)c1=O [Compound 30, (S)-1,3-Dimethyl-5-(1-((1-(1-methylpiperidine-4-carbonyl)piperidin-3-yl)methyl)-1H-benzo[d]imidazole-2-yl)pyridin-2(1H)-one]	4.8	–	7.6	631 fold	1.5	251 nM	≥ 237 µg/mL	–	–
CC(=O)N1CCC(C(=O)N2CCC[C@@H](Cn3c(-c4cc(C)c(=O)n(C)c4)nc4ccccc43)C2)CC1 [Compound 33, (S)-5-(1-((1-(1-Acetylpiperidine-4-carbonyl)piperidin-3-yl)methyl)-1H-benzo[d]imidazole-2-yl)-1,3-dimethylpyridin-2(1H)-one]	4.7	–	6.5	63 fold	2.2	2000 nM	≥ 205 µg/mL	–	–
Cc1cc(-c2nc3ccccc3n2C[C@@H]2CCCN(C(=O)C3CNC3)C2)cn(C)c1=O [Compound 22, (S)-5-(1-((1-(Azetidine-3-carbonyl)piperidin-3-yl)methyl)-1H-benzo[d]imidazole-2-yl)-1,3-dimethylpyridin-2(1H)-one]	5.9	–	8.0	126 fold	1.2	631 nM	≥ 169 µg/mL	–	–
Cc1cc(-c2nc3ccccc3n2C[C@@H]2CCCN(C(=O)C3CCNCC3)C2)cn(C)c1=O [Compound 27, (S)-1,3-Dimethyl-5-(1-((1-(piperidine-4-carbonyl)piperidin-3-yl)methyl)-1H-benzo[d]imidazole-2-yl)pyridin-2(1H)-one]	4.9	–	7.5	398 fold	1.3	1000 nM	≥ 215 µg/mL	–	–
Cc1cc(-c2nc3ccccc3n2C[C@@H]2CCCN(C(=O)[C@H]3C[C@H](N)C3)C2)cn(C)c1=O [Compound 23, 5-(1-(((S)-1-((1r,3S)-3-Aminocyclobutane-1-carbonyl)piperidin-3-yl)methyl)-1H-benzo[d]imidazole-2-yl)-1,3-dimethylpyridin-2(1H)-one]	5.4	–	7.9	316 fold	1.2	200 nM	≥ 230 µg/mL	–	–
